Measured values from patent US6423376B1, “Tartaric acid diesters as biodegradable surfactants” (Air Products and Chemicals, Inc., priority 2000, dated 2002).

Assays:
Type in all cases: physicochemical
[1] = Solubility limit in water from surface tension/ln concentration curve; conditions: in distilled water
Experimental: (§1) Solutions of the materials of Examples 1-12 in distilled water were prepared. […] The pC20 value is defined as the negative logarithm of the molar concentration of surfactant required to decrease the surface tension of an aqueous solution to 52.1 dyne/cm, that is, 20 dyne/cm below that of pure water when the measurement is performed at 0.1 b/s. This value is a measure of the efficiency of a surfactant. […] In addition, the relative efficiency of surfactants can be obtained by comparing surface tension reduction of solutions containing the same amount of different surfactants. Such data is given for 0.1 wt % solutions of the tartrates at 1.0 and 6.0 bubbles/second (b/s). The solubility limit was determined by intersection of the linear portion of a surface tension/In concentration curve with the limiting surface tension as is described in many textbooks. The limiting surface tensions at 0.1, 1, 6 and 20 b/s represent the lowest surface tensions in water which can be achieved at the given surface creation rates for a given surfactant regardless of the amount of surfactant used and is used to evaluate the effectiveness of a surfactant. These values give information about the relative ability to a surfactant to reduce surface defects under near-equilibrium conditions (0.1 b/s) through very dynamic conditions (20 b/s). Lower surface tensions would allow the elimination of defects upon application of a formulation onto lower energy surfaces.

[2] = Foam test based upon ASTM D 1173-53; conditions: 0.1 wt % solution
Excerpt: The foaming properties of a 0.1 wt % solution of the comparative example (nonylphenol 9.5 mole ethoxylate) and various dialkyltartrates (diisopropyl-(D)-tartrate, dibutyl-L-tartrate. diisobutyl-DL-tartrate, di-sec-butyl-DL-tartrate, dipentyl-DL-tartrate, diisoamyl-DL-tartrate, di-(2-methyl-butyl)-DL-tartrate, dineopentyl-DL-tartrate, dihexyl-DL-tartrate, di-(4-methyl-2-pentyl)-DL-tartrate, dibenzyl-DL-tartrate and di-(2-ethyl-hexyl)-DL-tartrate) were examined using a procedure based upon ASTM D 1173-53. In this test, a 0.1 wt % solution of the surfactant is added from an elevated foam pipette to a foam receiver containing the same solution. The foam height is measured at the completion of the addition (“Initial Foam Height”) and the time required for the foam to dissipate at the air-liquid interface (“Time to 0 Foam”) is recorded. This test provides a comparison between the foaming characteristics of various surfactants. In general, in coatings, inks, adhesives and agricultural formulations, foam is undesirable because is complicates handling and can lead to coating and print defects, and to inefficient application of agricultural materials.

[3] = Dynamic surface tension of aqueous solutions, maximum bubble pressure method; conditions: for limiting γ (0.1 b/s) / limiting γ (1 b/s) / limiting γ (6 b/s) / limiting γ (20 b/s): lowest surface tension in water; for pC20: negative logarithm of molar concentration giving 52.1 dyne/cm at 0.1 b/s; for decrease in the limiting surface tension: in comparison to dipentyl-L-tartrate
Excerpt: where R1 and R2 are independently a C4 to C6 alkyl group, but preferably are the same; provided that when the water-based composition is an ink, R1 and R2 are independently a C5 or C6 alkyl group. […] The maximum-bubble-pressure method of measuring surface tension is described in Langmuir 1986, 2, 428-432, which is incorporated by reference.
In the following Examples dynamic surface tension data were obtained for aqueous solutions of various compounds using the maximum bubble pressure method at bubble rates from 0.1 bubbles/second (b/s) to 20 b/s. […] In practical terms, high bubble rates correspond to high printing speeds in lithographic printing, high spray or roller velocities in coating applications, and rapid application rates for agricultural products.
Dynamic surface tension data were obtained for a 0.1 wt % aqueous solution of the 9.5 mole ethoxylate of nonylphenol using the maximum bubble pressure method at bubble rates from 0.1 bubbles/second (b/s) to 20 b/s.
as §1

Row | Compound | solubility limit [1] | initial foam [2] | time to zero foam [2] | γ (0.1 wt % solution) (1 b/s) ([3]; 1 b/s) | γ (0.1 wt % solution) (6 b/s) ([3]; 6 b/s) | limiting γ (0.1 b/s) ([3]; 0.1 b/s) | limiting γ (1 b/s) ([3]; 1 b/s) | limiting γ (6 b/s) ([3]; 6 b/s) | limiting γ (20 b/s) ([3]; 20 b/s) | pC20 [3] | time to zero foam ([2]; unit not given) | other results
1 | CC(C)COC(=O)C(O)C(O)C(=O)OCC(C)C (racemic) [Example 3, Diisobutyl-DL-tartrate] | 0.7 Weight % | 0.5 cm | 0.3 s | 50.6 Dyne/cm | 51.4 Dyne/cm | 38.7 Dyne/cm | 39.3 Dyne/cm | 39.8 Dyne/cm | 40.8 Dyne/cm | 2.6 |  | 
2 | CC(C)OC(=O)C(O)C(O)C(=O)OC(C)C [Example 1, Diisopropyl-D-tartrate] | >5% Weight % |  |  |  |  |  |  |  |  |  |  | 
3 | CC(C)CC(C)OC(=O)C(O)C(O)C(=O)OC(C)CC(C)C (racemic) [Example 10, Di(4-methyl-2-pentyl)-DL-tartrate] | 0.02 Weight % | 0.8 cm | 0.3 s | 42.2 Dyne/cm | 46.8 Dyne/cm | 41.3 Dyne/cm | 49.9 Dyne/cm | 56.1 Dyne/cm | 68.2 Dyne/cm | 3.7 |  | 
4 | O=C(OCc1ccccc1)C(O)C(O)C(=O)OCc1ccccc1 (racemic) [Example 11, Dibenzyl-DL-tartrate] | 0.05 Weight % | 1.3 cm | 0.1 s | 67.8 Dyne/cm | 70.0 Dyne/cm | 64.0 Dyne/cm | 68.1 Dyne/cm | 69.8 Dyne/cm | 72.5 Dyne/cm | 1.0 |  | 
5 | CCCCCOC(=O)C(O)C(O)C(=O)OCCCCC (racemic) [Example 5, Dipentyl-DL-tartrate] | 0.1 Weight % | 0 cm |  | 36.8 Dyne/cm | 37.8 Dyne/cm | 35.9 Dyne/cm | 36.8 Dyne/cm | 37.8 Dyne/cm | 41.6 Dyne/cm | 3.3 | 0 | 
6 | 9.5 mole ethoxylate of nonylphenol [reference compound] |  | 4.5 cm | >300 s |  |  |  |  |  |  |  |  | Dynamic Surface Tension (0.1 b/s) ([3]; 0.1 wt % aqueous solution, 0.1 b/s): 33.2 dyne/cm; Dynamic Surface Tension (1 b/s) ([3]; 0.1 wt % aqueous solution, 1 b/s): 36.7 dyne/cm; Dynamic Surface Tension (6 b/s) ([3]; 0.1 wt % aqueous solution, 6 b/s): 44.3 dyne/cm; Dynamic Surface Tension (15 b/s) ([3]; 0.1 wt % aqueous solution, 15 b/s): 52.8 dyne/cm; Dynamic Surface Tension (20 b/s) ([3]; 0.1 wt % aqueous solution, 20 b/s): 56.2 dyne/cm
7 | CCCCCCOC(=O)C(O)C(O)C(=O)OCCCCCC (racemic) [Example 9, Dihexyl-DL-tartrate] | 0.01 Weight % | 1.3 cm | 0.1 s | 59.0 Dyne/cm | 65.9 Dyne/cm | 40.5 Dyne/cm | 59.0 Dyne/cm | 65.9 Dyne/cm | 70.0 Dyne/cm | 3.8 |  | 
8 | CC(C)CCOC(=O)C(O)C(O)C(=O)OCCC(C)C (racemic) [Example 6, Diisoamyl-DL-tartrate] | 0.1 Weight % | 0 cm |  | 35.4 Dyne/cm | 36.7 Dyne/cm | 34.9 Dyne/cm | 35.7 Dyne/cm | 37.2 Dyne/cm | 40.3 Dyne/cm | 3.7 | 0 | decrease in the limiting surface tension ([3]; 20 b/s): 1.3 dyne/cm
9 | CCCCC(CC)COC(=O)C(O)C(O)C(=O)OCC(CC)CCCC (racemic) [Example 12, Di(2-ethylhexyl)-DL-tartrate] | 0.06 Weight % | 0 cm |  | 69.8 Dyne/cm | 70.5 Dyne/cm | 66.7 Dyne/cm | 69.8 Dyne/cm | 70.5 Dyne/cm | 71.3 Dyne/cm | 1.6 | 0 | limiting γ (0.1 b/s) at 5 wt. % ([3]; 5 wt. %, cloudy mixture, 0.1 b/s): 38.5 dyne/cm; limiting γ (1 b/s) at 5 wt. % ([3]; 5 wt. %, cloudy mixture, 1 b/s): 40.3 dyne/cm; limiting γ (6.0 b/s) at 5 wt. % ([3]; 5 wt. %, cloudy mixture, 6.0 b/s): 41.2 dyne/cm; limiting γ (20 b/s) at 5 wt. % ([3]; 5 wt. %, cloudy mixture, 20 b/s): 44.8 dyne/cm
10 | CCC(C)OC(=O)C(O)C(O)C(=O)OC(C)CC (racemic) [Example 4, Di-sec-butyl-DL-tartrate] | 1.7 Weight % | 1.7 cm | 0.4 s | 52.2 Dyne/cm | 53.2 Dyne/cm | 35.1 Dyne/cm | 35.0 Dyne/cm | 35.0 Dyne/cm | 36.0 Dyne/cm | 2.5 |  | 
11 | CC(C)(C)COC(=O)C(O)C(O)C(=O)OCC(C)(C)C (racemic) [Example 8, Dineopentyl-DL-tartrate] | 0.2 Weight % | 0 cm |  | 38.7 Dyne/cm | 39.8 Dyne/cm | 35.1 Dyne/cm | 35.5 Dyne/cm | 36.1 Dyne/cm | 38.4 Dyne/cm | 3.5 | 0 | decrease in the limiting surface tension ([3]; 20 b/s): 3.2 dyne/cm
12 | CCCCOC(=O)C(O)C(O)C(=O)OCCCC (racemic) [Example 2, Dibutyl-L-tartrate] | 1.1 Weight % |  |  |  |  |  |  |  |  |  |  | 
